Results from paper PMC5000727, “Molecular Insights into the Potential Toxicological Interaction of 2-Mercaptothiazoline with the Antioxidant Enzyme—Catalase” (International Journal of Molecular Sciences, 2016).

Target: T1, catalase (CAT), from bovine liver (Bos taurus, UniProt P00432)
T1 construct: native enzyme from bovine liver, commercial (Sigma), EC 1.11.1.6; homotetramer; PDB 1TGU printed only as docking model
T1 sequence (P00432 2-527): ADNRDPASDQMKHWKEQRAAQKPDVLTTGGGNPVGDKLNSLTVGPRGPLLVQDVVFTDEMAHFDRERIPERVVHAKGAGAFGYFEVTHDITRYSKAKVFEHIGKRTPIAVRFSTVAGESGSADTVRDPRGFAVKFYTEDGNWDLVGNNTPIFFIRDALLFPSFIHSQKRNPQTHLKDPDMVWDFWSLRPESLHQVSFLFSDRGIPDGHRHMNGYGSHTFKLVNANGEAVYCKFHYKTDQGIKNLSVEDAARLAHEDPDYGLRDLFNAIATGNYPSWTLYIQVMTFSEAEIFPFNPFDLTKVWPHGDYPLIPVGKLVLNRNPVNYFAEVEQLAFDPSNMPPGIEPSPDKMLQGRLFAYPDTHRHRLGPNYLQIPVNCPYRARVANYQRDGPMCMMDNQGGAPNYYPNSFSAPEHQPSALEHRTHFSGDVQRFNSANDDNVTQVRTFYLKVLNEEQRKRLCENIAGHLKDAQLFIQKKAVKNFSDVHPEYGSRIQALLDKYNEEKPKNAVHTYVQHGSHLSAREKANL
Test: intrinsic fluorescence quenching (ex […] nm)
Type: binding
Details: double-log; pH 7.4, 291 K, phosphate buffer; n = 1.14; unit printed mol·L^−1 but must be L·mol^−1 (printed ΔG° agrees); also measured at 300, 309, 318 K

In the case of `S=C1NCCS1` [2-mercaptothiazoline, 1,3-thiazolidine-2-thione], the “Ka (× 10^4 mol.L^-1)” value is reported as 2.97 × 10^4 mol·L^−1.
